Test results from patent US5643912A, “Pyrazinoic acid esters as anti-mycobacterium avium agents” (The Research Foundation of State University of NY, priority 1996, dated 1997).
Converted amounts (≈) assume the structure as drawn. Like-named read-outs stand apart in the source and are kept apart here.

Columns and labels:
Type in all cases: cell-based
M. tuberculosis 102 = assay: Broth dilution MIC vs M. tuberculosis 102
M. avium 101 = assay: Broth dilution MIC vs M. avium 101; conditions: Mycobacterium avium, 7H10 broth, pH 5.8
M. kansasii SWK = assay: Broth dilution MIC vs M. kansasii SWK; conditions: Mycobacterium kansasii, 7H10 broth, pH 5.8
M. avium LPR = assay: Broth dilution MIC vs M. avium LPR; conditions: Mycobacterium avium, M. avium LPR (footnote a), 7H10 broth, pH 5.8
[1] = Mycobacterium tuberculosis, 102, pH 5.8, M. tuberculosis 102, 7H10 broth, read-out: MIC

SMILES	MIC (M. tuberculosis 102; [1])	MIC (M. avium 101)	MIC (M. kansasii SWK)	MIC (M. avium LPR)	MIC (M. tuberculosis 102; M. tuberculosis 102, 7H10 broth, pH 5.8)
CCCCCCCCCCOC(=O)c1cnccn1 [Example 1]	0.5 µg/mL (≈ 1.89 µM)	32 µg/mL (≈ 121 µM)	0.25 µg/mL (≈ 0.946 µM)	–	–
CCCCCCCCCCCCCCCOC(=O)c1cnccn1 [Example 2]	0.06 µg/mL (≈ 0.179 µM)	–	1 µg/mL (≈ 2.99 µM)	8 µg/mL (≈ 23.9 µM)	–
O=C(Oc1ccc(F)cc1)c1cnccn1 [Example 3]	32 µg/mL (≈ 147 µM)	128 µg/mL (≈ 587 µM)	64 µg/mL (≈ 293 µM)	–	–
O=C(Oc1c(Br)cc(Br)cc1Br)c1cnccn1 [Example 4]	32 µg/mL (≈ 73.2 µM)	128 µg/mL (≈ 293 µM)	64 µg/mL (≈ 146 µM)	–	–
COC(=O)c1cnc(Cl)cn1 [Example 5]	4 µg/mL (≈ 23.2 µM)	–	2 µg/mL (≈ 11.6 µM)	64 µg/mL (≈ 371 µM)	–
CCCCCCCCCCOC(=O)c1cnc(Cl)cn1 [Example 6]	0.5 µg/mL (≈ 1.67 µM)	32 µg/mL (≈ 107 µM)	0.5 µg/mL (≈ 1.67 µM)	–	–
CCCCCCCCCCCCCCCOC(=O)c1cnc(Cl)cn1 [Example 7]	0.13 µg/mL (≈ 0.352 µM)	> 16 µg/mL	0.25 µg/mL (≈ 0.678 µM)	–	–
CCCCCCC(C)OC(=O)c1cnc(Cl)cn1 (stereo not drawn) [Example 8]	< 0.25 µg/mL	32 µg/mL (≈ 118 µM)	< 0.25 µg/mL	–	–
COCCOCCOC(=O)c1cnc(Cl)cn1 [Example 9]	2 µg/mL (≈ 7.67 µM)	64 µg/mL (≈ 246 µM)	2 µg/mL (≈ 7.67 µM)	–	–
CCOCCOCCOC(=O)c1cnc(Cl)cn1 [Example 10]	1 µg/mL (≈ 3.64 µM)	64 µg/mL (≈ 233 µM)	4 µg/mL (≈ 14.6 µM)	–	–
CCCCOCCOCCOC(=O)c1cnc(Cl)cn1 [Example 11]	0.5 µg/mL (≈ 1.65 µM)	64 µg/mL (≈ 211 µM)	2 µg/mL (≈ 6.61 µM)	–	–
COCCOCCOCCOC(=O)c1cnc(Cl)cn1 [Example 12]	2 µg/mL (≈ 6.56 µM)	64 µg/mL (≈ 210 µM)	8 µg/mL (≈ 26.3 µM)	–	–
CCCCCCOC(=O)c1cnc(Cl)cn1 [Example 13]	0.13 µg/mL (≈ 0.536 µM)	32 µg/mL (≈ 132 µM)	< 0.03 µg/mL	–	–
CCCCCCCCOC(=O)c1cnc(Cl)cn1 [Example 14]	0.06 µg/mL (≈ 0.222 µM)	16 µg/mL (≈ 59.1 µM)	< 0.03 µg/mL	–	–
CCCOC(=O)c1cnc(Cl)cn1 [Example 15]	0.06 µg/mL (≈ 0.299 µM)	16 µg/mL (≈ 79.8 µM)	0.25 µg/mL (≈ 1.25 µM)	–	–
CCCCCCC(CCCCCC)OC(=O)c1cnc(Cl)cn1 [Example 16]	0.25 µg/mL (≈ 0.733 µM)	16 µg/mL (≈ 46.9 µM)	0.5 µg/mL (≈ 1.47 µM)	–	–

SMILES	MIC (M. tuberculosis 102; [1])	MIC (M. avium 101)	MIC (M. kansasii SWK)	MIC (M. avium LPR)	MIC (M. tuberculosis 102; M. tuberculosis 102, 7H10 broth, pH 5.8)
CCCCCCC(C)(CCCCCC)OC(=O)c1cnc(Cl)cn1 [Example 17]	0.25 µg/mL (≈ 0.704 µM)	–	2 µg/mL (≈ 5.64 µM)	16 µg/mL (≈ 45.1 µM)	–
CCCCCCCOC(=O)c1cnc(Cl)cn1 [Example 18]	0.06 µg/mL (≈ 0.234 µM)	8 µg/mL (≈ 31.2 µM)	< 0.03 µg/mL	–	–
CCCCCCCCC(C)OC(=O)c1cnc(Cl)cn1 (stereo not drawn) [Example 19]	0.03 µg/mL (≈ 0.1 µM)	32 µg/mL (≈ 107 µM)	0.13 µg/mL (≈ 0.435 µM)	–	–
CCCCCCCCCOC(=O)c1cnc(Cl)cn1 [Example 20]	< 0.03 µg/mL	32 µg/mL (≈ 112 µM)	< 0.13 µg/mL	–	–
CCCCCCC(C)(C)OC(=O)c1cnc(Cl)cn1 [Example 21]	0.25 µg/mL (≈ 0.878 µM)	64 µg/mL (≈ 225 µM)	1 µg/mL (≈ 3.51 µM)	–	–
CCCCCCC(C)(C)OC(=O)c1cnc(Cl)cn1 [Example 22]	–	–	–	–	0.13 µg/mL (≈ 0.456 µM)
COC(=O)c1cnc(F)cn1 [Example 23]	4 µg/mL (≈ 25.6 µM)	64 µg/mL (≈ 410 µM)	8 µg/mL (≈ 51.2 µM)	–	–
CCCCCC(C)OC(=O)c1cnc(Cl)cn1 (stereo not drawn) [Example 24]	0.06 µg/mL (≈ 0.234 µM)	32 µg/mL (≈ 125 µM)	< 0.13 µg/mL	–	–
CCCCCCCCCCCOC(=O)c1cnc(Cl)cn1 [Example 25]	0.25 µg/mL (≈ 0.799 µM)	16 µg/mL (≈ 51.1 µM)	0.06 µg/mL (≈ 0.192 µM)	–	–
CCCCCOC(=O)c1cnc(Cl)cn1 [Example 26]	0.06 µg/mL (≈ 0.262 µM)	32 µg/mL (≈ 140 µM)	0.03 µg/mL (≈ 0.131 µM)	–	–
CCCCCCCCCCOC(=O)c1cnc(F)cn1 [Example 27]	2 µg/mL (≈ 7.08 µM)	32 µg/mL (≈ 113 µM)	1 µg/mL (≈ 3.54 µM)	–	–
CCCCCCOC(=O)c1cnc(F)cn1 [Example 28]	–	64 µg/mL (≈ 283 µM)	8 µg/mL (≈ 35.4 µM)	–	–
CCCCCCC(C)OC(=O)c1cnc(F)cn1 (stereo not drawn) [Example 29]	2 µg/mL (≈ 7.86 µM)	32 µg/mL (≈ 126 µM)	0.03 µg/mL (≈ 0.118 µM)	–	–
O=C(OCc1ccccc1)c1cnc(Cl)cn1 [Example 30]	1 µg/mL (≈ 4.02 µM)	8 µg/mL (≈ 32.2 µM)	1 µg/mL (≈ 4.02 µM)	–	–
CCCCOC(=O)c1cnc(Cl)cn1 [Example 31]	0.25 µg/mL (≈ 1.16 µM)	64 µg/mL (≈ 298 µM)	< 1 µg/mL	–	–
C=CC(C)OC(=O)c1cnc(Cl)cn1 (stereo not drawn) [Example 32]	2 µg/mL (≈ 9.41 µM)	64 µg/mL (≈ 301 µM)	< 1 µg/mL	–	–
